Experimental data as given in patent publication US8044088B2, “1-acetic acid-indole derivatives with PGD2 antagonist activity” (Oxagen Limited, priority 2005, dated 2011).

Tests used:
[1] = biological target: T1, CRTH2 Receptor (Homo sapiens, UniProt Q9Y5Y4); test: Radioligand binding assay, [3H]PGD2, CHO/CRTH2 cell membranes; details: [3H]PGD2 displacement, membranes of CHO cells transfected with CRTH2
T1 construct: expressed in transfected cells; host or cells: Chinese Hamster Ovary (CHO) cells, membranes
T1 sequence (Q9Y5Y4 1-395): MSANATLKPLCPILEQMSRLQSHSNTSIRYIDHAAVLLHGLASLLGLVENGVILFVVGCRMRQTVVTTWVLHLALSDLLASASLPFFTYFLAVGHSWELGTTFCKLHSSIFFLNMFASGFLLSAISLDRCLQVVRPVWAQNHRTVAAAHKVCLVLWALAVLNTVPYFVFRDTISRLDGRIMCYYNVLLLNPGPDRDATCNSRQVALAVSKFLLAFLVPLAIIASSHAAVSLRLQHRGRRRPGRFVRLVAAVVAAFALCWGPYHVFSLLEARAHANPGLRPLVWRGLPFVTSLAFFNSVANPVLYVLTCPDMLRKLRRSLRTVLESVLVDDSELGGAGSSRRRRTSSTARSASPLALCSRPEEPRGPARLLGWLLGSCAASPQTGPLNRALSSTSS
Procedure: (§1) Chinese Hamster Ovary cells were transfected with CRTH2 or DP receptors (CHO/CRTH2 and CHO/DP) and were maintained in culture in a humidified atmosphere at 37° C. (5% CO2) in Minimum Essential Medium (MEM) supplemented with 10% foetal bovine serum, 2 mM glutamine, and 1 mg ml^−1 active G418. The cells were passaged every 2-3 days. For radioligand binding assay, cells were prepared in triple-layer flasks or in 175 cm^2 square flasks (for membrane preparation). For calcium mobilisation assay, cells were grown in a 96 well plate 24h prior to the assay at a density of 80,000 cells per well.
(§2) Membranes were prepared either from CHO/CRTH2 and CHO/DP cells, or from platelets (as a source of TP receptors). CHO cells grown to confluency were washed with PBS and detached using a Versene solution (15 ml per flask). When the cells were grown in 175 cm^2 square flask, they were collected by scrapping in PBS. The cell suspensions were centrifuged (1,700 rpm, 10 min, 4° C.) and resuspended in 15 ml of buffer (1×HBSS, supplemented with 10 mM HEPES, pH 7.3). Cell suspensions were then homogenised using an Ultra Turrax at setting 4-6 for 20 s. The homogenate was centrifuged at 1,700 rpm for 10 min and the supernatant was collected and centrifuged at 20,000 rpm for 1 h at 4° C. The resulting pellet was resuspended in buffer and stored at −80° C. in aliquots of 200-500 μl. The protein concentration was determined by the method of Bradford (1976), using bovine serum albumin as standard. The platelets were washed by centrifugation at 600×g for 10 min and resuspended in ice-cold assay buffer (10 mM Tris-HCl, pH 7.4, 5 mM Glucose, 120 mM NaCl, 10 μM indomethacin) and directly centrifuged at 20,000 rpm for 30 min at 4° C. […]
(§3) [^3H]PGD2 (160 Ci/mmol) binding experiments were performed on membranes prepared as described above. […] The Unifilter plates were dried at room temperature for at least 1 h and the radioactivity retained on the filters was determined on a Beta Trilux counter (PerkinElmer Life Sciences), following addition of 40 μl of Optiphase Hi-Safe 3 (Wallac) liquid scintillation. […]

[2] = biological target: T2, DP Receptor (Homo sapiens, UniProt Q13258); test: Radioligand binding assay, [3H]PGD2, CHO/DP cell membranes; details: [3H]PGD2 displacement, membranes of CHO cells transfected with DP
T2 construct: expressed in transfected cells; host or cells: Chinese Hamster Ovary (CHO) cells, membranes
T2 sequence (Q13258 1-359): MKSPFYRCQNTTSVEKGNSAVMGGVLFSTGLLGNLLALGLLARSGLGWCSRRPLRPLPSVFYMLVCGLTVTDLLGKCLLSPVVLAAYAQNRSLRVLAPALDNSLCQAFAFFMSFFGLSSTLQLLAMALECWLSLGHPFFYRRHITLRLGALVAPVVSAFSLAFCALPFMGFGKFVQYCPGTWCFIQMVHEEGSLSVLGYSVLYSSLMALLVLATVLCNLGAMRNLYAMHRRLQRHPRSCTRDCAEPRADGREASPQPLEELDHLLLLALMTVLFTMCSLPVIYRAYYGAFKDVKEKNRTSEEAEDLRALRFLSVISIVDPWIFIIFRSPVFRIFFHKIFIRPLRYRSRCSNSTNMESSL
Procedure: as §1, §2, §3

Structure (SMILES)	Ki [1]	Ki [2]
Cc1c(Cc2cccn2S(=O)(=O)c2ccc(F)cc2F)c2cc(F)ccc2n1CC(=O)O [Compound 3, {3-[1-(2,4-Difluoro-benzenesulfonyl)-1H-pyrrol-2-ylmethyl]-5-fluoro-2-methyl-indol-1-yl}-acetic acid]	2 nM	8 µM
Cc1c(Cc2cccn2S(=O)(=O)c2ccccc2)c2cc(F)ccc2n1CC(=O)O [Compound 1, [3-(1-Benzenesulfonyl-1H-pyrrol-2-ylmethyl)-5-fluoro-2-methyl-indol-1-yl]-acetic acid]	1 nM	9.2 µM
Cc1ccc(S(=O)(=O)n2cccc2Cc2c(C)n(CC(=O)O)c3ccc(F)cc23)cc1 [Compound 2, {5-Fluoro-2-methyl-3-[1-(toluene-4-sulfonyl)-1H-pyrrol-2-ylmethyl]-indol-1-yl}-acetic acid]	0.2 nM	1.8 µM
